This experiment relates to Lewis lung carcinoma i.m., BDF1 mice, T/C %. Briefly: NCI In Vivo Anticancer Drug Screen. Data for tumor model Lewis Lung Carcinoma (intramuscular) in B6D2F1 (BDF1) mice. The gist of the method:
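Value is the ratio of a treated-group measurement (T) to the matching vehicle-control measurement (C), using either survival or tumour size in mice bearing transplanted tumours.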

Where [1] appears, read: endpoint: mean tumor weight (est.), dose: 2.0 mg/kg/injection, schedule: Q01DX011 (ip), vehicle: saline, higher = larger tumour.
[2] abbreviates: endpoint: mean tumor weight (est.), dose: 4.0 mg/kg/injection, schedule: Q01DX011 (ip), vehicle: saline, higher = larger tumour.
[3] abbreviates: endpoint: median survival time, dose: 2.0 mg/kg/injection, schedule: Q01DX011 (ip), vehicle: saline, higher = longer survival.
[4] abbreviates: endpoint: median survival time, dose: 4.0 mg/kg/injection, schedule: Q01DX011 (ip), vehicle: saline, higher = longer survival.

“And” between values parts separate entries of the source, which are not always exact repeats. Identical values can stand only once. Records with an inconclusive call do not appear.

For `Cc1n(Cc2ccccc2)c2c([n+]1C)C(=O)c1ccccc1C2=O`, the T/C is 48 % of control (endpoint: mean tumor weight (est.), dose: 0.13 mg/kg/injection, schedule: Q01DX011 (ip), vehicle: saline with Tween-80, higher = larger tumour); 50 % of control (endpoint: mean tumor weight (est.), dose: 0.25 mg/kg/injection, schedule: Q01DX011 (ip), vehicle: saline with Tween-80, higher = larger tumour); 31 % of control (endpoint: mean tumor weight (est.), dose: 0.5 mg/kg/injection, schedule: Q01DX011 (ip), vehicle: saline with Tween-80, higher = larger tumour); 36 % of control (endpoint: mean tumor weight (est.), dose: 1.0 mg/kg/injection, schedule: Q01DX011 (ip), vehicle: saline with Tween-80, higher = larger tumour); 43 % of control (endpoint: mean tumor weight (est.), dose: 2.0 mg/kg/injection, schedule: Q01DX011 (ip), vehicle: saline with Tween-80, higher = larger tumour); 110 % of control (endpoint: median survival time, dose: 0.13 mg/kg/injection, schedule: Q01DX011 (ip), vehicle: saline with Tween-80, higher = longer survival). Besides, the T/C is 100 % of control (endpoint: median survival time, dose: 0.25 mg/kg/injection, schedule: Q01DX011 (ip), vehicle: saline with Tween-80, higher = longer survival); 106 % of control (endpoint: median survival time, dose: 0.5 mg/kg/injection, schedule: Q01DX011 (ip), vehicle: saline with Tween-80, higher = longer survival); 89 % of control (endpoint: median survival time, dose: 1.0 mg/kg/injection, schedule: Q01DX011 (ip), vehicle: saline with Tween-80, higher = longer survival); 89 % of control (endpoint: median survival time, dose: 2.0 mg/kg/injection, schedule: Q01DX011 (ip), vehicle: saline with Tween-80, higher = longer survival).
Regarding `CCCCOc1ccc(NC(N)=Nc2ccc(Cl)cc2)cc1`, the T/C is 118 % of control (endpoint: mean tumor weight (est.), dose: 3.12 mg/kg/injection, schedule: Q01DX011 (ip), vehicle: saline with Tween-80, higher = larger tumour); 101 % of control (endpoint: mean tumor weight (est.), dose: 6.25 mg/kg/injection, schedule: Q01DX011 (ip), vehicle: saline with Tween-80, higher = larger tumour); 67 % of control (endpoint: mean tumor weight (est.), dose: 12.5 mg/kg/injection, schedule: Q01DX011 (ip), vehicle: saline with Tween-80, higher = larger tumour); 58 % of control (endpoint: mean tumor weight (est.), dose: 25.0 mg/kg/injection, schedule: Q01DX011 (ip), vehicle: saline with Tween-80, higher = larger tumour); 97 % of control (endpoint: median survival time, dose: 3.12 mg/kg/injection, schedule: Q01DX011 (ip), vehicle: saline with Tween-80, higher = longer survival); 123 % of control (endpoint: median survival time, dose: 6.25 mg/kg/injection, schedule: Q01DX011 (ip), vehicle: saline with Tween-80, higher = longer survival). For the same compound, the T/C by setting is: (endpoint: median survival time, dose: 12.5 mg/kg/injection, schedule: Q01DX011 (ip), vehicle: saline with Tween-80, higher = longer survival) 102 % of control; (endpoint: median survival time, dose: 25.0 mg/kg/injection, schedule: Q01DX011 (ip), vehicle: saline with Tween-80, higher = longer survival) 104 % of control.
Take `CC(=O)[C@@]1(O)CC[C@H]2[C@@H]3C[C@H](C)C4=CC(=O)C=C[C@]4(C)[C@@]3(F)[C@@H](O)C[C@@]21C`: the T/C is 40 % of control (endpoint: mean tumor weight, dose: 12.5 mg/kg/injection, schedule: Q01DX011 (ip), vehicle: steriod suspending solution, higher = larger tumour); 26 % of control (endpoint: mean tumor weight, dose: 25.0 mg/kg/injection, schedule: Q01DX011 (ip), vehicle: steriod suspending solution, higher = larger tumour); 19 % of control (endpoint: mean tumor weight, dose: 50.0 mg/kg/injection, schedule: Q01DX011 (ip), vehicle: steriod suspending solution, higher = larger tumour); 107 % of control (endpoint: median survival time, dose: 12.5 mg/kg/injection, schedule: Q01DX011 (ip), vehicle: steriod suspending solution, higher = longer survival); 94 % of control and 112 % of control (endpoint: median survival time, dose: 25.0 mg/kg/injection, schedule: Q01DX011 (ip), vehicle: steriod suspending solution, higher = longer survival).
Regarding `O=S(=O)(O)C(Nc1ccccc1)c1ccccc1` (stereo not given), the T/C (endpoint: mean tumor weight, dose: 200.0 mg/kg/injection, schedule: Q01DX011 (ip), vehicle: water, higher = larger tumour) was 79 % of control and the T/C (endpoint: mean tumor weight, dose: 400.0 mg/kg/injection, schedule: Q01DX011 (ip), vehicle: water, higher = larger tumour) was 58 % of control.
As to `CCN(CC)CCNc1ccc(CO)c2sc3ccccc3c(=O)c12`, the T/C (endpoint: mean tumor weight (est.), dose: 18.75 mg/kg/injection, schedule: Q01DX011 (ip), vehicle: saline, higher = larger tumour) was 110 % of control; the T/C (endpoint: mean tumor weight (est.), dose: 37.5 mg/kg/injection, schedule: Q01DX011 (ip), vehicle: saline, higher = larger tumour) is 56 % of control; the T/C (endpoint: mean tumor weight (est.), dose: 75.0 mg/kg/injection, schedule: Q01DX011 (ip), vehicle: saline, higher = larger tumour) was 19 % of control; the T/C (endpoint: median survival time, dose: 18.75 mg/kg/injection, schedule: Q01DX011 (ip), vehicle: saline, higher = longer survival) was 105 % of control; the T/C (endpoint: median survival time, dose: 37.5 mg/kg/injection, schedule: Q01DX011 (ip), vehicle: saline, higher = longer survival) is 107 % of control; the T/C (endpoint: median survival time, dose: 75.0 mg/kg/injection, schedule: Q01DX011 (ip), vehicle: saline, higher = longer survival) is 113 % of control.
On to `CCCCCCCCCCCCCCCCCC[n+]1cccc(C(=O)N2CCOCC2)c1`, for which the T/C is 82 % of control under setting [1]; 83 % of control under setting [2]; 71 % of control (endpoint: mean tumor weight (est.), dose: 8.0 mg/kg/injection, schedule: Q01DX011 (ip), vehicle: saline, higher = larger tumour); 64 % of control (endpoint: mean tumor weight (est.), dose: 16.0 mg/kg/injection, schedule: Q01DX011 (ip), vehicle: saline, higher = larger tumour); 101 % of control under setting [3]; 103 % of control under setting [4]. Moreover, the T/C is, setting by setting: (endpoint: median survival time, dose: 8.0 mg/kg/injection, schedule: Q01DX011 (ip), vehicle: saline, higher = longer survival) 105 % of control; (endpoint: median survival time, dose: 16.0 mg/kg/injection, schedule: Q01DX011 (ip), vehicle: saline, higher = longer survival) 94 % of control.
`O=NN(CCCl)C(=O)NC1CCCCC1`: the T/C was 61 % of control (endpoint: mean tumor weight, dose: 23.0 mg/kg/injection, schedule: Q01DX001 (sc), vehicle: saline, higher = larger tumour); 40 % of control (endpoint: mean tumor weight, dose: 39.0 mg/kg/injection, schedule: Q01DX001 (sc), vehicle: saline, higher = larger tumour); 30 % of control (endpoint: mean tumor weight, dose: 65.0 mg/kg/injection, schedule: Q01DX001 (sc), vehicle: saline, higher = larger tumour); 30 % of control (endpoint: mean tumor weight, dose: 108.0 mg/kg/injection, schedule: Q01DX001 (sc), vehicle: saline, higher = larger tumour); 92 % of control (endpoint: median survival time, dose: 4.0 mg/kg/injection, schedule: Q01DX011 (ip), vehicle: saline + alcohol, higher = longer survival); 105 % of control (endpoint: median survival time, dose: 4.0 mg/kg/injection, schedule: Q01DX011 (ip), vehicle: saline with Tween-80, higher = longer survival). Further, the T/C (endpoint: median survival time, dose: 8.0 mg/kg/injection, schedule: Q01DX011 (ip), vehicle: saline + alcohol, higher = longer survival) was 92 % of control; the T/C (endpoint: median survival time, dose: 14.0 mg/kg/injection, schedule: Q01DX001 (ip), vehicle: saline, higher = longer survival) is 108 % of control; the T/C (endpoint: median survival time, dose: 16.0 mg/kg/injection, schedule: Q01DX012 (ip), vehicle: saline + alcohol, higher = longer survival) is 87 % of control; the T/C (endpoint: median survival time, dose: 23.0 mg/kg/injection, schedule: Q01DX001 (ip), vehicle: saline, higher = longer survival) is 121 % of control; the T/C (endpoint: median survival time, dose: 23.0 mg/kg/injection, schedule: Q07DX003 (ip), vehicle: saline, higher = longer survival) is 87 % of control; the T/C (endpoint: median survival time, dose: 39.0 mg/kg/injection, schedule: Q01DX001 (sc), vehicle: saline, higher = longer survival) was 185 % of control. Also, the T/C (endpoint: median survival time, dose: 39.0 mg/kg/injection, schedule: Q07DX003 (ip), vehicle: saline, higher = longer survival) is 120 % of control; the T/C (endpoint: median survival time, dose: 65.0 mg/kg/injection, schedule: Q01DX001 (ip), vehicle: saline, higher = longer survival) is 34 % of control; the T/C (endpoint: median survival time, dose: 65.0 mg/kg/injection, schedule: Q01DX001 (sc), vehicle: saline, higher = longer survival) is 191 % of control; the T/C (endpoint: median survival time, dose: 108.0 mg/kg/injection, schedule: Q01DX001 (ip), vehicle: saline, higher = longer survival) was 25 % of control; the T/C (endpoint: median survival time, dose: 108.0 mg/kg/injection, schedule: Q01DX001 (sc), vehicle: saline, higher = longer survival) is 166 % of control.
`CCCCCCCCCCCC(c1ccccc1)[N+](C)(C)C` (stereo not given): the T/C runs as follows: under setting [1], 89 % of control; under setting [2], 76 % of control; under setting [3], 104 % of control; under setting [4], 108 % of control.
In the case of `CCOC(=O)c1nc(C)[nH]c(=O)c1C`, the T/C is 94 % of control (endpoint: median survival time, dose: 4.0 mg/kg/injection, schedule: Q01DX009 (ip), vehicle: water, higher = longer survival); 109 % of control (endpoint: median survival time, dose: 8.0 mg/kg/injection, schedule: Q01DX009 (ip), vehicle: water, higher = longer survival); 104 % of control (endpoint: median survival time, dose: 16.0 mg/kg/injection, schedule: Q01DX009 (ip), vehicle: water, higher = longer survival); 100 % of control (endpoint: median survival time, dose: 64.0 mg/kg/injection, schedule: Q01DX009 (ip), vehicle: water, higher = longer survival).
On to `Cc1nc(N)sc1CCCl`, for which the T/C was 86 % of control (endpoint: mean tumor weight (est.), dose: 10.0 mg/kg/injection, schedule: Q01DX011 (ip), vehicle: saline, higher = larger tumour); 105 % of control (endpoint: mean tumor weight (est.), dose: 20.0 mg/kg/injection, schedule: Q01DX011 (ip), vehicle: saline, higher = larger tumour); 91 % of control (endpoint: mean tumor weight (est.), dose: 40.0 mg/kg/injection, schedule: Q01DX011 (ip), vehicle: saline, higher = larger tumour); 98 % of control (endpoint: median survival time, dose: 10.0 mg/kg/injection, schedule: Q01DX011 (ip), vehicle: saline, higher = longer survival); 104 % of control (endpoint: median survival time, dose: 20.0 mg/kg/injection, schedule: Q01DX011 (ip), vehicle: saline, higher = longer survival); 104 % of control (endpoint: median survival time, dose: 40.0 mg/kg/injection, schedule: Q01DX011 (ip), vehicle: saline, higher = longer survival).
